Results reported in paper PMC9737734, “Phytochemical investigation of Ludwigia adscendens subsp. diffusa aerial parts in context of its biological activity” (BMC Chemistry, 2022).
Values after ≈ are worked out from the molar mass of the structure shown.

System: PC-3 cells (human prostate cancer cell line)
Experiment: Cytotoxic activity, MTT cell viability assay against PC-3 cell line
Assay type: cell-based
Settings: read-out: Cytotoxcity activity IC50
Protocol: Cytotoxic activity of L. adscendens aerial part fractions were tested in vitro using MTT cell viability assay as previously described. Briefly, in each well plate 100 µL of fresh culture RPMI 1640 medium without phenol red then 10 µL of the 12 mM MTT stock solution (5 mg of MTT in 1 mL of PBS) were added to each well. An 85 µL aliquot of the incubated media was replaced by 50 µL of DMSO and incubated at 37 °C for 10 min. The optical density was measured at 590 nm with the microplate reader to determine the number of viable cells and the percentage of viability was calculated as the percentage of cell survival was calculated as follows: Surviving fraction=O.D.treated cells/O.D.control cells∗100

COc1cccc2c1C(=O)c1c(O)c3c(c(O)c1C2=O)C[C@@](O)(C(=O)CO)C[C@@H]3O[C@H]1C[C@H](N)[C@H](O)[C@H](C)O1 [Doxorubicin]
IC50: 34.9 ± 5.21 µg/mL (≈ 64.2 µM)
